Holding throughout (test): NCI anticancer screen, dose series, 48 h
In assay [1] the test system is NCI-H226.
Assay [2] relates to TK-10.
The subject of assay [3] is HCT-15.
The subject of assay [4] is UACC-62.
For assay [5], the system named is CCRF-CEM.
In assay [6] the test system is SK-MEL-2.
Assay [7] has as its system OVCAR-3.
In assay [8] the test system is MOLT-4.
In assay [9] the test system is U-251.
In assay [10] the test system is MCF7.
The test system of assay [11] is HOP-62.
Assay [12] deals with SN12C.
The test system of assay [13] is SK-MEL-5.
For assay [14], the system named is UACC-257.
Assay [15] relates to DU-145.

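How tested: cells in 96-well plates exposed to compound for 48 hours at five concentrations. Here, GI50 denotes the concentration required for 50% inhibition of growth.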 Calls of active or inactive are those of the source. No stated cut-off is given here; in the data, active = GI50 up to about 1.1 µM and inactive = higher. Some results are limits rather than exact numbers.

Regarding `COC(=O)/C=C/c1cnc2c(c1)oc(=O)n2CCc1ccccn1`, the GI50 in assay [1] was 17.2 µM (inactive); in assay [2], > 100 µM (inactive); in assay [3], above 100 µM; in assay [4], > 100 µM (inactive); in [5], 31.6 µM (inactive); in assay [6], > 100 µM (inactive). Further, the GI50 in assay [7], in assay [8], in assay [9], in [10], in [11] and in assay [12] was > 100 µM (inactive) in each case. For the same molecule, the GI50 in assay [13] is 59.6 µM (inactive); in assay [14], > 100 µM (inactive).
`CO[C@@]12C[C@@H](C)C3=CCC(C)=C3CC1=C(C)C(=O)O2`: the GI50 in assay [1] was > 100 µM (inactive); in [2] it was > 100 µM (inactive); in [3], above 100 µM; in assay [4] it was > 100 µM (inactive); in [5], 50.8 µM (inactive); in [6], > 100 µM (inactive). Moreover, the GI50 was > 100 µM (inactive) in assay [7]; 45.7 µM (inactive) in [8]; > 100 µM (inactive) in [9]; > 100 µM (inactive) in assay [13]; > 100 µM (inactive) in [14].
For the molecule `CN(NC(=O)c1ccc(Cl)cc1)C1=NCCCCN1`, the GI50 in [1] is > 100 µM (inactive); in assay [2], > 100 µM (inactive); in assay [3], above 100 µM; in [4] it was > 100 µM (inactive); in [5], > 100 µM (inactive); in assay [6] it was > 100 µM (inactive). Also, the GI50 in [7], in [8], in assay [9], in assay [10], in [11] and in assay [13] was > 100 µM (inactive) in each case. Besides, the GI50 in [14] was > 100 µM (inactive).
As to `C=C(CC[C@@H](C)[C@H]1CC[C@@]2(C)C3=C(CC[C@]12C)[C@@]1(C)CC[C@H](O)[C@@H](C)C1CC3)C(C)C` (stereo partly specified), the GI50 in [1] was 1.81 µM (inactive); in assay [2] it was 1.35 µM (inactive); in assay [3], 1.2 µM; in assay [4] it was 1.43 µM (inactive); in assay [5], 0.414 µM (active); in [6], 1.56 µM (inactive). The GI50 is 1.77 µM (inactive) in assay [7]; 0.953 µM (active) in [8]; 1.39 µM (inactive) in [9]; 1.47 µM (inactive) in [10]; 0.879 µM (active) in assay [11]; 1.44 µM (inactive) in assay [12]. Besides, the GI50 in [13] is 1.26 µM (inactive); in [14], 1.49 µM (inactive).
Turning to `CN(Cc1cnc2nc(N)nc(N)c2n1)c1ccc(C(=O)NC(CCC(=O)O)C(=O)O)cc1` (stereo unspecified), the GI50 in [1] was 5.38 µM (inactive); in [2], 0.869 µM (active); in assay [3], below 0.01 µM; in assay [4] it was < 0.0136 µM (active); in [6], > 100 µM (inactive); in [7], 0.111 µM (active). The GI50 was 0.0205 µM (active) in assay [8]; 0.0916 µM (active) in assay [9]; 0.0154 µM (active) in assay [15]; < 0.011 µM (active) in assay [12]; 0.0661 µM (active) in assay [13]; 0.815 µM (active) in [14].
Consider `C#CCCCC(=C)C[C@H](OCc1ccccc1)[C@H]1OC(=O)[C@@H]1C`, for which the GI50 was 96.4 µM (inactive) in assay [1]; > 100 µM (inactive) in assay [2]; 79.4 µM in assay [3]; > 100 µM (inactive) in assay [4]; > 100 µM (inactive) in assay [5]; > 100 µM (inactive) in assay [6]. The GI50 in assay [7] is 31.3 µM (inactive); in assay [9], > 100 µM (inactive); in [10], 37.2 µM (inactive); in [11], > 100 µM (inactive); in [12], > 100 µM (inactive); in assay [14] it was > 100 µM (inactive).

The values above are taken from ChEMBL document CHEMBL1201862, “PubChem BioAssay data set” (2004).
